Data: publication PMC8064491, “Design and Synthesis of Novel Symmetric Fluorene-2,7-Diamine Derivatives as Potent Hepatitis C Virus Inhibitors” (Pharmaceuticals, 2021)

Legend:
[1] = system: HCV subgenomic reporter replicon of genotype 1b (strain Con1); experiment: Anti-HCV 1b activity, luciferase reporter replicon assay in Huh5-2 cells; type: cell-based, Hepatitis C virus; conditions: for fold more potent than six-membered congeners: 1, 9, 17, 21 vs 29, 30, 31, 32 respectively, HCV 1b EC50 ratio; for EC50: Hepatitis C virus, Huh-5-2, 72 h, read-out: HCV Replicon 1b EC50; for HCV Replicon 1b SI50: SI50 = CC50/EC50
Protocol: (§1) The HCV RNA replication inhibitory effect of the novel compounds and their impact on cell viability was tested in the stable cell line Huh5-2 carrying an HCV subgenomic reporter replicon of genotype 1b (strain Con1). The viral replication level was measured in terms of the activity of the co-expressed firefly luciferase (F-Luc). Several concentrations of the tested compounds were prepared in a cell culture medium and were used to treat the cells for 72 h. The solvent DMSO was added as a control with a final concentration of 0.2% so as not to impact viral replication (data not shown). First, different compound concentrations of up to 100 μM were evaluated for their effect on cell viability; results are reported as the median cytotoxic concentration (CC50). Next, all compounds were screened for their anti-HCV activity at a concentration of 1 µM, and compounds showing ≥50% activity were further tested in several concentrations to calculate the median effective concentration (EC50) values (Table 1 and Table 2). The anti-HCV activity of the analogs 1–32 was estimated by quantifying luciferase activity resulting from viral replication. Cytotoxicity was determined by measuring the intracellular levels of ATP. The selectivity index (SI50) was calculated as the ratio of CC50 to EC50 and was calculated as an indication of the compounds’ safety. We used daclatasvir as a positive control.
The stable replicon cell line Huh5-2 (genotype 1b; Con1) (kindly provided by R. Bartenschlager, Heidelberg University, Germany) has been described previously. The stable cell lines Huh7.5-3a and Huh7.5-4a have been constructed with the subgenomic reporter replicons of HCV 3a (S52) S52-SG(Feo)(AII) and HCV 4a (ED43) ED43-SG(Feo)(VYG) (kindly provided by C.M. Rice, The Rockefeller University, NY). Cells were cultured in high glucose (25 mM) Dulbecco’s modified minimal essential medium (Invitrogen), supplemented with 2 mM L-glutamine, 0.1 mM non-essential amino acids, 100 U/mL penicillin, 100 µg/mL streptomycin, and 10% (v/v) fetal calf serum (referred to as complete DMEM). Complete DMEM was supplemented with G418 at 500 μg/mL for Huh5-2, 750 μg/mL for Huh7.5-3a, and 350 μg/mL for Huh7.5-4a.
(§2) Cells were treated with serial dilutions of the test compounds or the solvent DMSO for 72 h. Antiviral activity and cytotoxicity were determined by measuring virus-derived luciferase activity or intracellular ATP levels, respectively. The median effective concentration (EC50) of the compounds, reducing luciferase signal by 50%, and their median cytotoxic concentration (CC50), causing 50% cell death, were determined by nonlinear regression analysis using the Prism 6.0 software (GraphPad Software Inc.). Daclatasvir was kindly provided by Dr. Marc Windisch (Institut Pasteur Korea).
Firefly luciferase activity was measured using Luciferase Assay System (Promega), according to the manufacturer’s instructions. Measurements were performed with a GloMax 20/20 single tube luminometer (Promega) for 10 s. Values were normalized to total protein amounts as quantified by Bradford assay (Pierce).

[2] = Cytotoxicity by intracellular ATP levels; type: cell-based; conditions: human, Huh5-2 cells, read-out: HCV Replicon 1b CC50
Protocol: as §1, §2
ATP was measured using the ViaLight HS BioAssay kit (Lonza) according to the manufacturer’s protocol in a GloMax 20/20 single-tube luminometer (Promega) for 1 s. Values were normalized to total protein amounts.

COC(=O)N[C@H](C(=O)N1CCC[C@H]1C(=O)Nc1ccc2c(c1)Cc1cc(NC(=O)[C@@H]3CCCN3C(=O)[C@@H](NC(=O)OC)C(C)C)ccc1-2)C(C)C [Compound 1, Dimethyl((2S,2’S)-((2S,2’S)-(((9H-fluorene-2,7-diyl)bis(azanediyl))bis(carbonyl))bis(pyrrolidine-2,1-diyl))bis(3-methyl-1-oxobutane-1,2-diyl))dicarbamate]
fold more potent than six-membered congeners [1]: five

CCOC(=O)N[C@H](C(=O)N1CCC[C@H]1C(=O)Nc1ccc2c(c1)Cc1cc(NC(=O)[C@@H]3CCCN3C(=O)[C@@H](NC(=O)OCC)C(C)C)ccc1-2)C(C)C [Compound 2, Diethyl((2S,2’S)-((2S,2’S)-(((9H-fluorene-2,7-diyl)bis(azanediyl))bis(carbonyl))bis(pyrrolidine-2,1-diyl))bis(3-methyl-1-oxobutane-1,2-diyl))dicarbamate]
EC50 [1]: > 1000 nM
CC50 at 72 h [2]: > 100000 nM

CCCCOC(=O)N[C@H](C(=O)N1CCC[C@H]1C(=O)Nc1ccc2c(c1)Cc1cc(NC(=O)[C@@H]3CCCN3C(=O)[C@@H](NC(=O)OCCCC)C(C)C)ccc1-2)C(C)C [Compound 3, Dibutyl((2S,2’S)-((2S,2’S)-(((9H-fluorene-2,7-diyl)bis(azanediyl))bis(carbonyl))bis(pyrrolidine-2,1-diyl))bis(3-methyl-1-oxobutane-1,2-diyl))dicarbamate]
EC50 [1]: > 1000 nM
CC50 at 72 h [2]: > 100000 nM

CC(C)[C@H](NC(=O)OCc1ccccc1)C(=O)N1CCC[C@H]1C(=O)Nc1ccc2c(c1)Cc1cc(NC(=O)[C@@H]3CCCN3C(=O)[C@@H](NC(=O)OCc3ccccc3)C(C)C)ccc1-2 [Compound 4, Dibenzyl ((2S,2’S)-((2S,2’S)-(((9H-fluorene-2,7-diyl)bis(azanediyl))bis(carbonyl))bis(pyrrolidine-2,1-diyl))bis(3-methyl-1-oxobutane-1,2-diyl))dicarbamate]
EC50 [1]: 967 nM
HCV Replicon 1b SI50 [1]: >103
CC50 at 72 h [2]: > 100000 nM

COC(=O)N[C@@H](C(=O)N1CCC[C@H]1C(=O)Nc1ccc2c(c1)Cc1cc(NC(=O)[C@@H]3CCCN3C(=O)[C@H](NC(=O)OC)C(C)C)ccc1-2)C(C)C [Compound 5, Dimethyl ((2R,2’R)-((2S,2’S)-(((9H-fluorene-2,7-diyl)bis(azanediyl))bis(carbonyl))bis(pyrrolidine-2,1-diyl))bis(3-methyl-1-oxobutane-1,2-diyl))dicarbamate]
EC50 [1]: 801 nM
HCV Replicon 1b SI50 [1]: >125
CC50 at 72 h [2]: > 100000 nM

CCOC(=O)N[C@@H](C(=O)N1CCC[C@H]1C(=O)Nc1ccc2c(c1)Cc1cc(NC(=O)[C@@H]3CCCN3C(=O)[C@H](NC(=O)OCC)C(C)C)ccc1-2)C(C)C [Compound 6, Diethyl((2R,2’R)-((2S,2’S)-(((9H-fluorene-2,7-diyl)bis(azanediyl))bis(carbonyl))bis(pyrrolidine-2,1-diyl))bis(3-methyl-1-oxobutane-1,2-diyl))dicarbamate]
EC50 [1]: 102 nM
HCV Replicon 1b SI50 [1]: 780
CC50 at 72 h [2]: 79600 nM

CCCCOC(=O)N[C@@H](C(=O)N1CCC[C@H]1C(=O)Nc1ccc2c(c1)Cc1cc(NC(=O)[C@@H]3CCCN3C(=O)[C@H](NC(=O)OCCCC)C(C)C)ccc1-2)C(C)C [Compound 7, Dibutyl((2R,2’R)-((2S,2’S)-(((9H-fluorene-2,7-diyl)bis(azanediyl))bis(carbonyl))bis(pyrrolidine-2,1-diyl))bis(3-methyl-1-oxobutane-1,2-diyl))dicarbamate]
EC50 [1]: 981 nM
HCV Replicon 1b SI50 [1]: >102
CC50 at 72 h [2]: > 100000 nM

CC(C)[C@@H](NC(=O)OCc1ccccc1)C(=O)N1CCC[C@H]1C(=O)Nc1ccc2c(c1)Cc1cc(NC(=O)[C@@H]3CCCN3C(=O)[C@H](NC(=O)OCc3ccccc3)C(C)C)ccc1-2 [Compound 8, Dibenzyl((2R,2’R)-((2S,2’S)-(((9H-fluorene-2,7-diyl)bis(azanediyl))bis(carbonyl))bis(pyrrolidine-2,1-diyl))bis(3-methyl-1-oxobutane-1,2-diyl))dicarbamate]
EC50 [1]: 45.4 nM
HCV Replicon 1b SI50 [1]: >2202
CC50 at 72 h [2]: > 100000 nM

COC(=O)N[C@H](CC(C)C)C(=O)N1CCC[C@H]1C(=O)Nc1ccc2c(c1)Cc1cc(NC(=O)[C@@H]3CCCN3C(=O)[C@@H](CC(C)C)NC(=O)OC)ccc1-2 [Compound 13, Dimethyl((2R,2’R)-((2S,2’S)-(((9H-fluorene-2,7-diyl)bis(azanediyl))bis(carbonyl))bis(pyrrolidine-2,1-diyl))bis(4-methyl-1-oxopentane-1,2-diyl))dicarbamate]
EC50 [1]: 0.081 nM
HCV Replicon 1b SI50 [1]: >1,238,850
CC50 at 72 h [2]: > 100000 nM

CCOC(=O)N[C@H](CC(C)C)C(=O)N1CCC[C@H]1C(=O)Nc1ccc2c(c1)Cc1cc(NC(=O)[C@@H]3CCCN3C(=O)[C@@H](CC(C)C)NC(=O)OCC)ccc1-2 [Compound 14, Diethyl ((2R,2’R)-((2S,2’S)-(((9H-fluorene-2,7-diyl)bis(azanediyl))bis(carbonyl))bis(pyrrolidine-2,1-diyl))bis(4-methyl-1-oxopentane-1,2-diyl))dicarbamate]
EC50 [1]: 2.55 nM
HCV Replicon 1b SI50 [1]: >39,185
CC50 at 72 h [2]: > 100000 nM

CCCCOC(=O)N[C@H](CC(C)C)C(=O)N1CCC[C@H]1C(=O)Nc1ccc2c(c1)Cc1cc(NC(=O)[C@@H]3CCCN3C(=O)[C@@H](CC(C)C)NC(=O)OCCCC)ccc1-2 [Compound 15, Dibutyl((2R,2’R)-((2S,2’S)-(((9H-fluorene-2,7-diyl)bis(azanediyl))bis(carbonyl))bis(pyrrolidine-2,1-diyl))bis(4-methyl-1-oxopentane-1,2-diyl))dicarbamate]
EC50 [1]: > 1000 nM
CC50 at 72 h [2]: 34200 nM

CC(C)C[C@@H](NC(=O)OCc1ccccc1)C(=O)N1CCC[C@H]1C(=O)Nc1ccc2c(c1)Cc1cc(NC(=O)[C@@H]3CCCN3C(=O)[C@@H](CC(C)C)NC(=O)OCc3ccccc3)ccc1-2 [Compound 16, Dibenzyl((2R,2’R)-((2S,2’S)-(((9H-fluorene-2,7-diyl)bis(azanediyl))bis(carbonyl))bis(pyrrolidine-2,1-diyl))bis(4-methyl-1-oxopentane-1,2-diyl))dicarbamate]
EC50 [1]: > 1000 nM
CC50 at 72 h [2]: > 100000 nM

COC(=O)N[C@H](C(=O)N1CCC[C@H]1C(=O)Nc1ccc2c(c1)Cc1cc(NC(=O)[C@@H]3CCCN3C(=O)[C@@H](NC(=O)OC)c3ccccc3)ccc1-2)c1ccccc1 [Compound 21, Dimethyl((1S,1’S)-((2S,2’S)-(((9H-fluorene-2,7diyl)bis(azanediyl))bis(carbonyl))bis(pyrrolidine-2,1-diyl))bis(2-oxo-1-phenylethane-2,1-diyl))dicarbamate]
fold more potent than six-membered congeners [1]: 36 fold
EC50 [1]: 8.5 nM
HCV Replicon 1b SI50 [1]: 10,298
CC50 at 72 h [2]: 87500 nM

CCOC(=O)N[C@H](C(=O)N1CCC[C@H]1C(=O)Nc1ccc2c(c1)Cc1cc(NC(=O)[C@@H]3CCCN3C(=O)[C@@H](NC(=O)OCC)c3ccccc3)ccc1-2)c1ccccc1 [Compound 22, Diethyl((1S,1’S)-((2S,2’S)-(((9H-fluorene-2,7-diyl)bis(azanediyl))bis(carbonyl))bis(pyrrolidine-2,1-diyl))bis(2-oxo-1-phenylethane-2,1-diyl))dicarbamate]
EC50 [1]: 7.49 nM
HCV Replicon 1b SI50 [1]: >13,349
CC50 at 72 h [2]: > 100000 nM

CCCCOC(=O)N[C@H](C(=O)N1CCC[C@H]1C(=O)Nc1ccc2c(c1)Cc1cc(NC(=O)[C@@H]3CCCN3C(=O)[C@@H](NC(=O)OCCCC)c3ccccc3)ccc1-2)c1ccccc1 [Compound 23, Dibutyl((1S,1’S)-((2S,2’S)-(((9H-fluorene-2,7-diyl)bis(azanediyl))bis(carbonyl))bis(pyrrolidine-2,1-diyl))bis(2-oxo-1-phenylethane-2,1-diyl))dicarbamate]
EC50 [1]: 2.25 nM
HCV Replicon 1b SI50 [1]: >44,444
CC50 at 72 h [2]: > 100000 nM
